Experimental data published in patent publication US10959968B2, “Methods for treating c-Met-dependent cancers” (Board of Supervisors of Louisiana State University and …, priority 2016, dated 2021).

Tests used:
[1] = tested on: DU145 spheroids; test: 3D spheroid growth, IncuCyte; assay type: cell-based, human; conditions: 72 hours
Description: FIG. 9B: DU145 cells were grown in 10% FBS DMEM. Cells were collected after trypsinization and resuspended in phenol-red free DMEM with 10% FBS. Cells were labeled with Cell-Tracker Red (Life Technologies) for 5 minutes. After labeling cells were washed with PBS and transfer into 96-well Corning 7007 ULA round bottom plates at 1,000 cells/well in 100 μl phenol-red free media with 10% FBS and 5% Matrigel. […] Spheroids were grown at 37° C. and 5% CO2 in IncuCyte ZOOM (Essen Bioscience). Images were acquired every 4 h for a period of 72 h post-treatment and software analysis was design to identify the red object in the well. The data were expressed as fold increase in spheroids size at the end of the treatment using the “average red object area in the well” as determined by the IncuCyte software analysis. FIG. 9C: Visually representative spheroids that are quantitated in FIG. 9B.
To determine the effectiveness of these compounds under 3D growth conditions which more accurately predict effectiveness of new drugs in humans, DU145 spheroids were formed and allowed to grow for 72 hours. Images were recorded every 4 hours using the Incucyte platform. […] Compounds 9 and 10, at 10 micromolar reduced spheroid growth by about 50 percent (not shown).

[2] = tested on: MDA-MB231 spheroids; test: 3D spheroid growth, IncuCyte; assay type: cell-based, human; conditions: Homo sapiens, MDA-MB-231, 10 micromolar, up to 72 hours
Description: FIG. 9. (A). MDA-MB231 cells were grown in 10% FBS DMEM. Cells were collected after trypsinization and resuspended in phenol-red free DMEM with 10% FBS. Cells were labeled with CellTracker Red (Life Technologies) for 5 minutes. After labeling cells were washed with PBS and transfer into 96-well Corning 7007 ULA round bottom plates at 1,000 cells/well in 100 μl phenol-red free media with 10% FBS and 5% Matrigel. […] Spheroids were grown at 37° C. and 5% CO2 in IncuCyte ZOOM (Essen Bioscience). Images were acquired every 4 h for a period of 72 h post-treatment. The data were expressed as fold increase in spheroids size at the end of the treatment using the “average red object area in the well” as determined by the IncuCyte software analysis.
MDA-MB231 spheroids were all allowed to form and treated with compounds for up to 72 hours. Images were captured using the Incucyte platform.

[3] = tested on: MDA-MB-231 human breast cancer cells; test: Cultrex BME cell invasion assay, HGF-induced; assay type: cell-based; conditions: 24 h treatment
Description: FIG. 6. (A) Effect of HVS on HGF-induced migration of the highly metastatic MDA-MB-231 human breast cancer cells in wound healing assay. […] Vertical bars indicate the percentage of wound closure at 24 h after wounding, calculated relative to the wound distance at zero time±SEM of N=6 in each treatment group. SU11274 and (−)-oleocanthal were used as positive controls at 10 μM. Right panel represents photomicrographs of wound healing assay showing HVS treatment at three different concentrations (1.25, 2.5, and 5 μM) blocked the migration of MDA-MB-231 cells in response to HGF stimulation, as compared to DMSO as a vehicle control. (B) Effect of HVS on HGF-induced cell invasion of the highly aggressive MDA-MB-231 human breast cancer cells using Cultrex® BME cell invasion assay. The cells were treated with different concentrations of HVS for 24 h. Vertical bars indicate the percentage of cells invading the basement membrane at the end of treatment period±SEM of N=3 in each treatment group. (−)-Oleocanthal was used as a positive control at 20 μM dose.*P<0.05 as compared with vehicle-treated control. (C) Effect of HVS on HGF-induced scattering of the DU145 human prostate cancer cells in 2D monolayer cultures, compared to DMSO as vehicle control. Cells were treated with indicated concentrations of HVS for 30 minutes in serum-free media. […]

[4] = tested on: T-47D breast cancer cells; test: HGF-stimulated growth of Met-independent cells, MTT assay; assay type: cell-based, human; conditions: similar treatment doses; 72 h
Description: FIG. 3. (A) Effect of HVS treatment on HGF-stimulated growth of Met-dependent MDA-MB-231, MDA-MB-468, MCF-7. and BT-474 breast cancer cells after 72 h treatment period, compared to DMSO as vehicle control. Viable cell count was determined using MTT assay. Vertical bars indicate the mean cell count±SEM of N=3 in each treatment group; (−)-oleocanthal was used as a positive control at 20 μM. (B) Effect of HVS treatment on HGF-stimulated growth of Met-independent T-47D breast cancer cells after 72 h treatment period. Viable cell count was determined using MTT assay. Vertical bars indicate the mean cell count±SEM of N=3 in each treatment group. (C) Cytotoxic effects of HVS on the highly metastatic MDA-MB-231 breast cancer cells at two different concentrations (30 and 60 μM) using LDH cytotoxicity assay. Triton X-100 was used as a positive control to cause the breakdown of all the cells and induce the total possible LDH release. (D) Effects of HVS treatment on the viability of non-tumorigenic human MCF10A mammary epithelial cells after a 24 h treatment period, compared to DMSO as vehicle control. (E) As in panel (A) but without HGF. […] Viable cell count was determined using MTT assay. Vertical bars indicate the mean cell count±SEM of N=3 in each treatment group; doxorubicin was used as a positive control at 10 μM dose. *P<0.05 as compared with vehicle treated control.
[…]. […]

## COc1cc(CCOC(=O)/C=C/c2cc(OC)c(O)c(OC)c2)ccc1O [Compound 8, (E)-4-hydroxy-3-methoxyph-ethyl 3-(4-hydroxy-3,5-dimethoxyphenyl) acrylate]
[1]; 10 micromolar
  reduction of spheroid growth: over 80%
[1]
  lowest concentration blocking spheroid growth: ≤ 1 µM
[2]
  inhibition at 10 µM: 80%
[3]
  HGF-induced invasion: appears to inhibit
[4]
  effect on T47-D cells which lack c-Met: no discernable effects
